Test results from patent publication US10144726B2, “Modulators of the p70S6 kinase for use in the treatment of brain disorders and triple-negative breast cancer” (SENTINEL ONCOLOGY LIMITED, priority 2015, dated 2018).
Read-outs that look alike come from different tables or passages of the source.

What was measured:
p70S6K (h) = p70S6K (h) (Homo sapiens, UniProt P23443); assay: Determination of p70S6 inhibitory activity (radiometric kinase assay); assay type: biochemical; conditions: read-out: (a) p70S6K1 IC50
Description: The ability of compounds of the invention to inhibit P70S6 kinase was determined using the protocol below.
20 mM MOPS, 1 mM EDTA, 0.01% Brij-35, 5% Glycerol, 0.1% b-mercaptoethanol, 1 mg/mL BSA
In a final reaction volume of 25 μL, p70S6K (h) (5-10 mU) is incubated with 8 mM MOPS pH 7.0, 0.2 mM EDTA, 100 μM KKRNRTLTV, 10 mM Mg acetate and [γ-33P-ATP] (specific activity approx. 500 cpm/pmol, concentration as required). The reaction is initiated by the addition of the MgATP mix. After incubation for 40 minutes at room temperature, the reaction is stopped by the addition of 5 μL of a 3% phosphoric acid solution. 10 μL of the reaction mixture is then spotted onto a P30 filtermat and washed three times for 5 minutes in 75 mM phosphoric acid and once in methanol prior to drying and scintillation counting.

[1] = Brain and plasma concentrations in an in vivo cassette mouse model; set-up: species or system male CD-1 mice; conditions: male, PO cassette, 2.5 mg/kg per compound
Description: The compounds of this invention were evaluated in an in vivo cassette mouse model to determine brain and plasma concentrations following oral dosing. This is an industry-standard and recognised means to assess brain penetration of small molecules (for recent literature article, refer to In vitro permeability analysis, pharmacokinetic and brain distribution study in mice of imperatorin, isoimperatorin and cnidilin in Radix Angelicae Dahuricae, Fitoterapia, Volume 85, March 2013 , Pages 144-153). It is also recognised that higher brain concentrations (and higher ratios of brain: plasma concentration) lead to greater exposure in the brain—this is clearly advantageous if the brain is the site of action.
For a single cassette study, male CD-1 mice were used (n=3 per timepoint, two timepoints: 1.0 hr and 3.0 hr).
5 compounds were dosed PO per cassette (dose level 2.5 mg/kg per compound, dose conc. 0.25 mg/ml, dose volume 10.0 ml/kg).
Formulation used to solubilize compounds: 10% DMSO/90% hydroxypropyl-β-cyclodextrin (20% w/v aqueous)
Sampling was terminal and plasma and brain matrices were generated. To prepare plasma samples, protein was precipitated using acetonitrile. To prepare brain samples, homogenisation and protein precipitation was performed with acetonitrile. Samples were analysed using HPLC-TOF MS using electrospray ionisation.

MDA-MB-231 (luc) cells = assay: Control of brain metastases arising from MDA-MB-231 (luc) cells after intra-cardiac injection; assay type: in vivo
Source text: In order to test the efficacy of an inhibitor of S6K1 in preventing brain metastases arising from TNBC cells, an in vivo mouse model was established:
Using a luciferase-tagged TNBC cell line (MDA-MB-231 (luc)) it was possible to track the spread of metastatic cells to the brain and other major organs via mouse whole-body imaging.
The MDA-MB-231(luc) cell-line was derived from MDA-MB-231 cells originally purchased from ATCC. These cells were stably transfected with pGL4.51 (Promega) using Lipofectamine 2000 (Life Technologies). Stably transfected colonies were selected for using neomycin and the most highly expressing clone was expanded. The cells have similar in vivo growth characteristics as the parental MDA-MB-231 cells.
Female athymic mice (Hsd:Athymic Nude-Foxn1^nu) were purchased from Harlan (UK) and acclimatised for 7 days prior to study commencement. Animals were housed in
The dosing route was p.o. and the formulation was as follows: 10% DMSO/90% hydroxypropyl-β-cyclodextrin (20% w/v aqueous)
On day 0 animals were anaesthetized and injected with 1×10^5 MDA-MB-231 (luc) cells directly into the heart. Intra-cardiac injection was chosen as this method leads to brain metastases. On day +1 animals were imaged using a Xenogen IVIS machine (following IP injection of 150 mg/kg) of D-luciferin). Evidence of light only in the cardiac area was indicative of a failed implantation and these animals were removed from the study. The experiment was commenced with 7 animals per treatment group to guarantee 5 animals per group completed the study.
Animals were imaged on 3 occasions during the study: 24 hours following intracardiac injection, 35 days after implantation and at the end of the study (70 days after implantation). For imaging, animals were first injected i.p. with D-luciferin (150 mg/kg) and 10 minutes later the animals were imaged under anaesthesia.
At the end of the 70 days, animals were imaged using the same method as described at 35 days. Following this the animals were then sacrificed and brain, liver and lungs were removed and imaged individually for metastatic spread.

MDA-MB-231 cells = assay: Tumour initiation and metastasis in an in vivo model of triple negative breast cancer (MDA-MB-231, mammary fat pad); set-up: species or system female athymic nude mice
Source text: In order to test the efficacy of an inhibitor of S6K1 in an in vivo model of tumour initiation and metastasis, the following experiment was established:
A total of 30 female athymic nude mice (Hsd:Athymic Nude-Foxn1^nu) were purchased from Harlan (UK) and acclimatised for 7 days prior to study commencement. Animals were housed in IVC cages (5 per cage) with individual mice identified by ear punch. All animals were allowed free access to a standard certified commercial diet and sanitised water during the study. The holding room was maintained under standard conditions: 20-24° C., 40-70% humidity and a 12 h light/dark cycle.
On day −1, animals were randomly assigned to treatment groups as indicated in the table below, and drug treatment commenced. On day 0, MDA-MB-231 cells (1×10^6 in matrigel) were implanted into the second mammary fat pad.
The dosing route was PO and the formulation was as follows: 10% DMSO/90% hydroxypropyl-β-cyclodextrin (20% w/v aqueous)
(1) Time to palpation of tumour (latency) (2) tumour volume (3) tumour and organ weights as a measure of metastasis (4) visual appearance of metastatic nodules in the lungs

[2] = 250 mg/kg p.o. QD 21 days, vs vehicle

p70S6K (h), sequence (P23443 whole entry): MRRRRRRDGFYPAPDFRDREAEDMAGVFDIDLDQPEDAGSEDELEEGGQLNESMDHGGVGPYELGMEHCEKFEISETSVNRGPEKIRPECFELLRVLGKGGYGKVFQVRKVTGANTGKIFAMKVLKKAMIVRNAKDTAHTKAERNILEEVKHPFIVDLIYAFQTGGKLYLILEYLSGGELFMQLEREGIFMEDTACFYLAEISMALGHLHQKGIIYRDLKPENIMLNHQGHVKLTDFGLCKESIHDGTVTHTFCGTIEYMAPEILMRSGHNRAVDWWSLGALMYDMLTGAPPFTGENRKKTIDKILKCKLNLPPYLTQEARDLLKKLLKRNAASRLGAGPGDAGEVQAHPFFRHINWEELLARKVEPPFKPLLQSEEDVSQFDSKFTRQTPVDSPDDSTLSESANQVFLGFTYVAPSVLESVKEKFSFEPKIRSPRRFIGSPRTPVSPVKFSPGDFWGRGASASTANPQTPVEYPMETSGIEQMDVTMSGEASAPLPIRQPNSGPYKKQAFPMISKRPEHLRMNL

C[C@@H](Nc1cnc2cc(-c3cn[nH]c3)ccc2n1)c1cccc(Cl)c1 [Example 15]
IC50 (p70S6K (h)): 6 nM
concentration at 3 h ([1]; CD-1, brain, read-out: (d) Brain conc. at 3 hours): 2430 nM
Kp at 3 h ([1]; CD-1, brain, read-out: (d) Brain: Plasma ratio at 3 hours): 2
concentration at 3 h ([1]; CD-1, plasma, read-out: (d) Plasma conc. at 3 hours): 1190 nM
Incidence of metastasis Brain (MDA-MB-231 (luc) cells; 125 mg/kg p.o. BID x 70 days): 0%
Incidence of metastasis Liver (MDA-MB-231 (luc) cells; 125 mg/kg p.o. BID x 70 days): 0%
Incidence of metastasis Lung (MDA-MB-231 (luc) cells; 125 mg/kg p.o. BID x 70 days): 40%
No. deaths on study (MDA-MB-231 (luc) cells; 125 mg/kg p.o. BID x 70 days): 0
Animals with visible metastases, whole body imaging (MDA-MB-231 (luc) cells; 125 mg/kg p.o. BID, at 35 days): 0 out of 5
Tolerability (MDA-MB-231 (luc) cells; 70 consecutive days of BID dosing, no treatment related deaths or adverse clinical signs): well-tolerated
Mean no. of nodules per lung (MDA-MB-231 cells; 250 mg/kg QD × 21, at necroscopy): 1
Lung weight at day 21 (MDA-MB-231 cells; [2]): reduction in weight of lungs
Rate of tumour incidence (MDA-MB-231 cells; [2]): decreases
Time to palpation of tumour (latency) (MDA-MB-231 cells; [2]): delays
Tumour weight at day 21 (MDA-MB-231 cells; [2]): weighed significantly less
Tumour volume (MDA-MB-231 cells; 250 mg/kg p.o. QD 21 days, vs vehicle, p<0.05): reduction in volume of tumours which is statistically significant over vehicle
